Consider six compounds from ChEMBL document CHEMBL5244281, “Tackling multidrug-resistant Staphylococcus aureus by natural products and their analogues acting as NorA efflux pump inhibitors” (Bioorg Med Chem, 2023).

Assay [1] deals with T1, Quinolone resistance protein NorA (Staphylococcus aureus) (UniProt P0A0J7).
T1 sequence (whole entry): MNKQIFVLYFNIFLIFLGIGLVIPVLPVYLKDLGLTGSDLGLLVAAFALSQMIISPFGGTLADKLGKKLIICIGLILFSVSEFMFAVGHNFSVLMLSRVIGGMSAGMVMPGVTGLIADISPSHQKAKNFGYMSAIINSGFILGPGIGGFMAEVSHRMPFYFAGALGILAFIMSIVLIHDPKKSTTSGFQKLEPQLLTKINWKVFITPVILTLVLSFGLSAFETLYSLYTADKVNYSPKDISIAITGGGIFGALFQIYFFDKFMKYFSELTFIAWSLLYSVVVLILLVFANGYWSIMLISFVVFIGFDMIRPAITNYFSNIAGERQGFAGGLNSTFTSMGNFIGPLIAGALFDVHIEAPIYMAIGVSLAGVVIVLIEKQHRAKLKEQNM
In words: Potentiation of ciprofloxacin-induced inhibition of NorA efflux pump in Staphylococcus aureus 1199 assessed as ciprofloxacin MIC at 100 ug/ml for 18 to 20 hrs by checkerboard method (Rvb=0.25 ug/ml). The settings on record: dose 100.0 µg/ml, time 18-20 hrs.

Assay [2] has as its target T1, Quinolone resistance protein NorA (Staphylococcus aureus). The assay can be described thus: Inhibition of NorA efflux pump in Staphylococcus aureus 1199B overexpressing NorA efflux pump assessed as minimum effective concentration for 18 to 20 hrs. Conditions: time 18-20 hrs.
For assay [3] the target is unchanged. The assay can be described thus: Potentiation of ciprofloxacin-induced inhibition of NorA efflux pump in Staphylococcus aureus 1199B overexpressing NorA efflux pump assessed as ciprofloxacin MIC at 100 ug/ml for 18 to 20 hrs by checkerboard method (Rvb=4 ug/ml). The settings on record: dose 100.0 µg/ml, time 18-20 hrs.
Assay [4] concerns Escherichia coli. In words: Antibacterial activity against Escherichia coli 06 assessed as bacterial growth inhibition incubated for 24 hrs by broth microdilution method. It counts as functional. (Broth dilution looks for growth in wells or tubes with falling amounts of substance.)
In assay [5] the test system is Staphylococcus aureus. In words: Antibacterial activity against Staphylococcus aureus 10 assessed as bacterial growth inhibition incubated for 24 hrs by broth microdilution method. Format: functional.
The subject of the next assay is Pseudomonas aeruginosa. The assay can be described thus: Antibacterial activity against Pseudomonas aeruginosa 24 assessed as bacterial growth inhibition incubated for 24 hrs by broth microdilution method. It counts as functional.
For assay [6], the system named is Staphylococcus aureus. The assay can be described thus: Antimicrobial activity against Staphylococcus aureus ATCC 43300 assessed as bacterial growth inhibition incubated for 18 hrs by broth microdilution assay. Format: functional.
Assay [7] deals with Staphylococcus aureus. The assay can be described thus: Antimicrobial activity against Staphylococcus aureus ATCC 29213 assessed as bacterial growth inhibition incubated for 18 hrs by broth microdilution assay. Format: functional.
A further assay deals with Enterococcus faecalis. The assay can be described thus: Antimicrobial activity against Enterococcus faecalis ATCC 29212 assessed as bacterial growth inhibition incubated for 18 hrs by broth microdilution assay. It counts as functional.
The test system of the next assay is Enterococcus faecium. In words: Antimicrobial activity against Enterococcus faecium ATCC 700221 assessed as bacterial growth inhibition incubated for 18 hrs by broth microdilution assay. It counts as functional.
The next assay concerns Klebsiella pneumoniae. The assay can be described thus: Antimicrobial activity against Klebsiella pneumoniae 1213-2 assessed as bacterial growth inhibition incubated for 18 hrs by broth microdilution assay. It counts as functional.
Assay [8] has as its system Escherichia coli. In words: Antimicrobial activity against Escherichia coli ATCC 25922 assessed as bacterial growth inhibition incubated for 18 hrs by broth microdilution assay. Format: functional.
The subject of assay [9] is Staphylococcus aureus. In words: Antimicrobial activity against Staphylococcus aureus BAA-44 assessed as bacterial growth inhibition incubated for 18 hrs by broth microdilution assay. Format: functional.
The subject of assay [10] is Staphylococcus aureus. The assay can be described thus: Antibacterial activity against Staphylococcus aureus RN4220 assessed as bacterial growth inhibition incubated for 18 hrs by MTT assay. It counts as functional. In general terms: Tetrazolium assays rely on reduction of a dye to a coloured formazan, in cell work by metabolically active cells.
The target of assay [11] is T1, Quinolone resistance protein NorA (Staphylococcus aureus). Conditions: 1199B, dose 64.0 µg/ml.
The test system of assay [12] is Staphylococcus aureus. In words: Antibacterial activity against Staphylococcus aureus 1199B overexpressing NorA assessed as bacterial growth inhibition incubated for 18 hrs by MTT assay. Format: functional.
The test system of assay [13] is Staphylococcus aureus. The assay can be described thus: Synergistic antibacterial activity against Staphylococcus aureus EMRSA-15 assessed as fractional Inhibitory concentration index at 64 ug/ml in presence of norfloxacin by broth dilution method. It counts as functional. Conditions: dose 64 µg/ml.
Assay [14] deals with Staphylococcus aureus. In words: Synergistic antibacterial activity against Staphylococcus aureus RN4220 assessed as fractional Inhibitory concentration index at 64 ug/ml in presence of norfloxacin by broth dilution method. Format: functional. Conditions: dose 64 µg/ml.
The subject of assay [15] is Staphylococcus aureus. In words: Synergistic antibacterial activity against Staphylococcus aureus 1199B overexpressing NorA assessed as fractional Inhibitory concentration index at 64 ug/ml in presence of norfloxacin by broth dilution method. Format: functional. The settings on record: dose 64 µg/ml.
The test system of assay [16] is Staphylococcus aureus. The assay can be described thus: Antibacterial activity against Staphylococcus aureus ATCC25923 assessed as bacterial growth inhibition incubated for 18 hrs by MTT assay. Format: functional.
Assay [17] deals with Staphylococcus aureus. In words: Antibacterial activity against Staphylococcus aureus EMRSA-15 assessed as bacterial growth inhibition incubated for 18 hrs by MTT assay. It counts as functional.
The subject of assay [18] is Staphylococcus aureus. The assay can be described thus: Antibacterial activity against tetracycline-resistant Staphylococcus aureus XU212 assessed as bacterial growth inhibition incubated for 18 hrs by MTT assay. It counts as functional.
For assay [19], the system named is Staphylococcus aureus. The assay can be described thus: Antibacterial activity against Staphylococcus aureus EMRSA-16 assessed as bacterial growth inhibition incubated for 18 hrs by MTT assay. It counts as functional.
In assay [20] the test system is Staphylococcus aureus. In words: Antibacterial activity against norfloxacin resistant Staphylococcus aureus 1199B overexpressing NorA assessed as bacterial growth inhibition incubated for 24 hrs by resazurin based microdilution assay. Format: functional.
The next assay relates to Candida albicans. In words: Antifungal activity against Candida albicans NEWP031 assessed as bacterial growth inhibition incubated for 24 hrs by resazurin based microdilution assay. It counts as functional. A general note: Resazurin is reduced to fluorescent resorufin, in cell work by metabolically active cells.
The subject of assay [21] is Staphylococcus aureus. The assay can be described thus: Antibacterial activity against Staphylococcus aureus ATCC 25923 assessed as bacterial growth inhibition incubated for 24 hrs by resazurin based microdilution assay. It counts as functional.
The target in assay [22] is Multidrug export protein MepA (Staphylococcus aureus (strain NCTC 8325)) (UniProt Q2G140). The assay can be described thus: Potentiation of EtBr-induced inhibition of MepA efflux in Staphylococcus aureus K2068 overexpressing MepA assessed as reduction in EtBr MIC at 1/8 times of MIC incubated for 24 hrs by CLSI based assay (Rvb= 322.54 ug/ml).
The test system of assay [23] is Escherichia coli. In words: Antibacterial activity against Escherichia coli ATCC […] assessed as bacterial growth inhibition incubated for 24 hrs by resazurin based microdilution assay. It counts as functional.
Assay [24] deals with Staphylococcus aureus. The assay can be described thus: Antibacterial activity against Staphylococcus aureus 1199 assessed as bacterial growth inhibition incubated for 24 hrs by resazurin based microdilution assay. Format: functional.
Assay [25] addresses T1, Quinolone resistance protein NorA (Staphylococcus aureus). The assay can be described thus: Potentiation of EtBr-induced inhibition of NorA efflux in Staphylococcus aureus 1199B overexpressing NorA assessed as reduction in EtBr MIC at 256 ug/ml incubated for 24 hrs by resazurin based assay (Rvb= 32 ug/ml). The settings on record: dose 256.0 µg/ml.
Assay [26] deals with Staphylococcus aureus. The assay can be described thus: Antibacterial activity against Staphylococcus aureus SA10 assessed as bacterial growth inhibition incubated for 24 hrs by resazurin based microdilution assay. Format: functional.
For assay [27], the target named is T1, Quinolone resistance protein NorA (Staphylococcus aureus). The assay can be described thus: Potentiation of norfloxacin-induced inhibition of NorA efflux in Staphylococcus aureus 1199B overexpressing NorA assessed as reduction in norfloxacin MIC at 1/8 times of MIC incubated for 24 hrs by CLSI based assay (Rvb= 322.54 ug/ml).
For assay [28] the target is unchanged. The assay can be described thus: Inhibition of NorA efflux pump in Staphylococcus aureus 1199B overexpressing NorA efflux pump assessed as reduction in EtBr MIC at 128 ug/ml using EtBr as substrate by resazurin based assay (Rvb= 32 ug/ml). Conditions: dose 128.0 µg/ml.
Assay [29] concerns Staphylococcus aureus. The assay can be described thus: Antibacterial activity against norfloxacin resistant Staphylococcus aureus IS-58 overexpressing TetK efflux pump gene assessed as bacterial growth inhibition incubated for 18 to 24 hrs by NCCLS protocol based microdilution method. It counts as functional. Conditions: time 18-24 hrs.
Assay [30] relates to Staphylococcus aureus. The assay can be described thus: Antibacterial activity against norfloxacin resistant Staphylococcus aureus 1199B overexpressing NorA efflux pump gene assessed as bacterial growth inhibition incubated for 18 to 24 hrs by NCCLS protocol based microdilution method. The settings on record: time 18-24 hrs. Format: functional.
In assay [31] the test system is Staphylococcus aureus. In words: Antibacterial activity against norfloxacin resistant Staphylococcus aureus RN4220 overexpressing MsrA efflux pump gene assessed as bacterial growth inhibition incubated for 18 to 24 hrs by NCCLS protocol based microdilution method. Conditions: time 18-24 hrs. Format: functional.

Values after ≈ are worked out from the molar mass of the structure shown.

With `CC(C)/C=C/CCCCC(=O)NCc1ccc(O)c(OCc2nnc(Nc3cccc(Br)c3)o2)c1`, the MIC was determined as 0.12 µg/mL in assay [1] and 0.5 µg/mL in assay [3]. Also, the MEC in assay [2] came out at 12.5 µg/mL.
Turning to `C=C1CC/C=C(\C)CC[C@@H]2[C@@H]1CC2(C)C` [BETA-CARYOPHYLLENE], the MIC with Escherichia coli [4] is not below 1020 µg/mL; with Staphylococcus aureus [5] it was 32 µg/mL (≈ 157 µM); with Pseudomonas aeruginosa it was not below 1020 µg/mL.
Take `CN(CC[C@H](N)CC(=O)N[C@H]1C=C[C@H](n2ccc(N)nc2=O)O[C@@H]1C(=O)O)C(=N)N` [BLASTICIDIN_S]: the MIC in the assay on Staphylococcus aureus [6] is 100 µg/mL (≈ 237 µM); in the assay with Staphylococcus aureus [7] it was 50 µg/mL (≈ 118 µM); with Enterococcus faecalis, 25 µg/mL (≈ 59.2 µM); in the assay on Enterococcus faecium, 200 µg/mL (≈ 473 µM); in the assay on Klebsiella pneumoniae, 50 µg/mL (≈ 118 µM); in the assay with Escherichia coli [8] it was 100 µg/mL (≈ 237 µM). Moreover, in the assay with Staphylococcus aureus [9], the MIC came out at 25 µg/mL (≈ 59.2 µM).
Take `COc1ccc(-c2cc(=O)c3c(O)cc(O)cc3o2)cc1O` [DIOSMETIN]: the MIC in the assay on Staphylococcus aureus [10] amounted to 32 µg/mL (≈ 107 µM); in [11], 16 µg/mL (≈ 53.3 µM); in the assay with Staphylococcus aureus [12], 32 µg/mL (≈ 107 µM); in the assay with Staphylococcus aureus [16], 32 µg/mL (≈ 107 µM); with Staphylococcus aureus [17], 32 µg/mL (≈ 107 µM); in the assay on Staphylococcus aureus [18], 32 µg/mL (≈ 107 µM). Moreover, in the assay with Staphylococcus aureus [19], the MIC was determined as 8 µg/mL (≈ 26.6 µM). Further, the “fractional inhibitory concentration index (FICI)” value came out at 0.09 in the assay on Staphylococcus aureus [13], 0.38 with Staphylococcus aureus [14] and 0.38 in the assay on Staphylococcus aureus [15].
As to `C=CCc1ccc(OC)cc1` [ESTRAGOLE], the MIC in the assay with Staphylococcus aureus [20] was not below 1020 µg/mL; in the assay on Candida albicans, 2050 µg/mL (≈ 13800 µM); in the assay with Staphylococcus aureus [21], not below 1020 µg/mL; in assay [22], 256 µg/mL; in the assay on Escherichia coli [23] it was 2050 µg/mL (≈ 13800 µM); in the assay on Staphylococcus aureus [24], not below 1020 µg/mL. In addition, the MIC was 16 µg/mL in [25], not below 1020 µg/mL with Staphylococcus aureus [26] and 256 µg/mL in assay [27].
With `COc1c2ccoc2c(OC)c2oc(=O)ccc12` [ISOPIMPINELLIN], the MIC in assay [28] is 4 µg/mL; in the assay on Staphylococcus aureus [29] it was more than 256 µg/mL; with Staphylococcus aureus [30] it was more than 256 µg/mL; with Staphylococcus aureus [31] it was more than 256 µg/mL.
